Measurements published in patent US20230139171A1 (SITA Information Networking Computing UK Limited, priority 2019, published 2023).

What was measured:
Assay type in all cases: cell-based
human TLR8 = target: T1, human TLR8 (Homo sapiens, UniProt Q9NR97); assay: TLR8 inhibition reporter assay (HEK-Blue cells, SEAP reporter, R848 stimulation); details: HEK-Blue cells overexpressing human TLR8, SEAP reporter, R848 15.9 μM; read-out: TLR8 IC50
T1 construct: host or cells: HEK-Blue cells
T1 sequence (Q9NR97 27-1041): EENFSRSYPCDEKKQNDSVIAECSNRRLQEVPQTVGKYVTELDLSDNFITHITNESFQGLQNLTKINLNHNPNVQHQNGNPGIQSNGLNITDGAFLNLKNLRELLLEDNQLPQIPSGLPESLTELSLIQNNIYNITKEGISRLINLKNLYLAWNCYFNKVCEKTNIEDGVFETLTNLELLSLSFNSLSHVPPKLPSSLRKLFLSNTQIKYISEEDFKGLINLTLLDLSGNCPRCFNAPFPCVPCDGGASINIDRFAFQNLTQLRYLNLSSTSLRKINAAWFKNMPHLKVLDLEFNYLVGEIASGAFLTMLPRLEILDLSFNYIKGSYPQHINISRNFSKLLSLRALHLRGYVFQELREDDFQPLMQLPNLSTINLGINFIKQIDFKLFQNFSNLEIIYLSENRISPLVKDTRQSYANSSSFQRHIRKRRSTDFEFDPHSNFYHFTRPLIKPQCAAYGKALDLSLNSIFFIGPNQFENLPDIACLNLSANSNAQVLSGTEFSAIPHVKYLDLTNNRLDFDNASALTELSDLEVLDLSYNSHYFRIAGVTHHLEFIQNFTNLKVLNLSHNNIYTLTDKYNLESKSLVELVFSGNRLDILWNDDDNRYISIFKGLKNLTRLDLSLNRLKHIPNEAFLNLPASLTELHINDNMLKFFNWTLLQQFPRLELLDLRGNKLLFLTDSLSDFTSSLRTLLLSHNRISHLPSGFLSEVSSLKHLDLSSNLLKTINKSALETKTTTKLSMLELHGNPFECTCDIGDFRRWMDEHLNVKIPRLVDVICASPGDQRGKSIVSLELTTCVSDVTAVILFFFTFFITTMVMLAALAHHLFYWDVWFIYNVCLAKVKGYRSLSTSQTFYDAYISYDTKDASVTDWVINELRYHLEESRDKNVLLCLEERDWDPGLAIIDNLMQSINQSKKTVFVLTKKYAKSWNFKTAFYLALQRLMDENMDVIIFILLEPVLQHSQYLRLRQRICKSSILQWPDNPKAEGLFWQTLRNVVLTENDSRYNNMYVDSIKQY
Outline: (§1)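 Human TLR7/8/9 HEK-Blue reporter lines; dose range 0.05 nM–50 μM; 30 min RT preincubation; stimulus gardiquimod 7.5 μM / R848 15.9 μM / ODN2006 5 nM respectively; 22 h, 37 °C; SEAP detected colorimetrically.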

human TLR9 = target: T2, human TLR9 (Homo sapiens, UniProt Q9NR96); assay: TLR9 inhibition reporter assay (HEK-Blue cells, SEAP reporter, ODN2006 stimulation); details: HEK-Blue cells overexpressing human TLR9, SEAP reporter, ODN2006 5 nM
T2 construct: host or cells: HEK-Blue cells
T2 sequence (Q9NR96 26-1032): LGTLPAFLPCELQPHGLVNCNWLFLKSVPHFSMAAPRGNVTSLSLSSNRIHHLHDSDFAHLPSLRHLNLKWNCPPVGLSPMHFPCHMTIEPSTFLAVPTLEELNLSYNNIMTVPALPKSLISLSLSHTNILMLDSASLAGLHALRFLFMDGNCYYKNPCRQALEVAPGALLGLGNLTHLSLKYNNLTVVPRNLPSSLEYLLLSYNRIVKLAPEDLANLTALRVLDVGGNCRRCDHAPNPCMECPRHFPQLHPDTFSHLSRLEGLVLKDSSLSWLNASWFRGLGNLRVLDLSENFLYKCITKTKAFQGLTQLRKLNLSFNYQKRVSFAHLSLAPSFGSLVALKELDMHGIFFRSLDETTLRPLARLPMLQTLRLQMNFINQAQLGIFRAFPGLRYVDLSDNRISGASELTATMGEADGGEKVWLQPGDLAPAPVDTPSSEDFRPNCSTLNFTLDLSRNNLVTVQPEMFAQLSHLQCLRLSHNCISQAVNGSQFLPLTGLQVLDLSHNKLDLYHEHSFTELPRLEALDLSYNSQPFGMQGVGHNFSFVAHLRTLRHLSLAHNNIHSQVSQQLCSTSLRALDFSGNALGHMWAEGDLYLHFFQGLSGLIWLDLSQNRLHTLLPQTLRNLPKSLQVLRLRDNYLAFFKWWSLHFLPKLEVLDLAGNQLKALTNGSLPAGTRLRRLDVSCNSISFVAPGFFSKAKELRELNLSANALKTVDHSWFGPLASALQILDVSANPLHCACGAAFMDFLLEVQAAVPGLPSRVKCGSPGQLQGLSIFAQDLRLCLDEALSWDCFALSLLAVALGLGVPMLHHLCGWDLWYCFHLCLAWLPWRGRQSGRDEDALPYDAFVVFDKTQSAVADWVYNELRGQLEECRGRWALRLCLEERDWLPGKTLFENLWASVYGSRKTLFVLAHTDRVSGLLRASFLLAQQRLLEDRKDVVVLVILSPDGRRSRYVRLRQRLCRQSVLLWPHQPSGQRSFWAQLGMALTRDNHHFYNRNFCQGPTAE
Outline: as §1

human TLR7 = target: T3, human TLR7 (Homo sapiens, UniProt Q9NYK1); assay: TLR7 inhibition reporter assay (HEK-Blue cells, SEAP reporter, gardiquimod stimulation); details: HEK-Blue cells overexpressing human TLR7, SEAP reporter, gardiquimod 7.5 μM; read-out: TLR7 IC50
T3 construct: host or cells: HEK-Blue cells
T3 sequence (Q9NYK1 27-1049): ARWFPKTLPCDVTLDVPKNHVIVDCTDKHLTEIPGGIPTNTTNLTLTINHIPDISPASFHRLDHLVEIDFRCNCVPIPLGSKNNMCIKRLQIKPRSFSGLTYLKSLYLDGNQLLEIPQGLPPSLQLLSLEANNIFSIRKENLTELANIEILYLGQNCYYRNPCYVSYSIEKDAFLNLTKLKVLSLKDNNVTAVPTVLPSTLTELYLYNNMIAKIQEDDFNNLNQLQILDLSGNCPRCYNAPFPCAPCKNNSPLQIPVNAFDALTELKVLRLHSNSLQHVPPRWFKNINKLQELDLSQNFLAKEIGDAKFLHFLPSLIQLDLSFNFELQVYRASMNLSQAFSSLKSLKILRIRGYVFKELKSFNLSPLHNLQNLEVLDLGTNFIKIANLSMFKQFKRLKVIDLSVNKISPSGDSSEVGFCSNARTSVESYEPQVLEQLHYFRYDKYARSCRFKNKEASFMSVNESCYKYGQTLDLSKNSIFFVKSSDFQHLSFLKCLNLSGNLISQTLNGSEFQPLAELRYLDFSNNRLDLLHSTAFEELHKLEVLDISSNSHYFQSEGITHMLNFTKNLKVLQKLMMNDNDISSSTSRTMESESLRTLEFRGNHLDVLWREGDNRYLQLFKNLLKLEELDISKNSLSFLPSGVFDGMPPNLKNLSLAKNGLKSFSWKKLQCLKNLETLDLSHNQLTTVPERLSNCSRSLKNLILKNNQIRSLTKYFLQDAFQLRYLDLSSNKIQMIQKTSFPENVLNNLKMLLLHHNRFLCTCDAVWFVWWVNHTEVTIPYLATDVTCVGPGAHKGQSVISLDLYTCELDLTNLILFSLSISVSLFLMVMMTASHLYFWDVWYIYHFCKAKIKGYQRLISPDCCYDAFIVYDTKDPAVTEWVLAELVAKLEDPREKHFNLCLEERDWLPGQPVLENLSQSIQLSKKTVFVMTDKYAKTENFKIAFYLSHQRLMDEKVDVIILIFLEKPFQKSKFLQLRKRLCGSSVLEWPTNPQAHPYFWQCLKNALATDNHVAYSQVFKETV
Outline: as §1

Row | Compound | IC50 (human TLR8) | IC50 (human TLR9) | IC50 (human TLR7)
1 | CC(C)c1c(-c2ccc(C#N)c3ncccc23)[nH]c2sc(C3CCN(C(=O)CN(C)C)CC3)nc12 [Example 39, 5-(2-(1-(dimethylglycyl)piperidin-4-yl)-6-isopropyl-4H-pyrrolo[3,2-d]thiazol-5-yl)quinoline-8-carbonitrile] | 25.5 nM | 3560 nM | 8.31 nM
2 | CC(C)c1c(-c2ccc(C#N)c3ncccc23)[nH]c2sc(C3CCN(CC(=O)N(C)C)CC3)nc12 [Example 40, 2-(4-(5-(8-cyanoquinolin-5-yl)-6-isopropyl-4H-pyrrolo[3,2-d]thiazol-2-yl)piperidin-1-yl)-N,N-dimethylacetamide] | 31.1 nM | 18900 nM | 29.9 nM
3 | Cc1c(-c2[nH]c3sc(C4CCN(C5CCOCC5)CC4)nc3c2C(C)C)cn2ncnc2c1C [Example 46, 5-(7,8-dimethyl-[1,2,4]triazolo[1,5-a]pyridin-6-yl)-6-isopropyl-2-(1-(tetrahydro-2H-pyran-4-yl)piperidin-4-yl)-4H-pyrrolo[3,2-d]thiazole] | 0.11 nM | 2500 nM | 0.57 nM
4 | Cc1c(-c2[nH]c3sc(C4CCN(CC5(C)COC5)CC4)nc3c2C(C)C)cn2ncnc2c1C [Example 47, 5-(7,8-dimethyl-[1,2,4]triazolo[1,5-a]pyridin-6-yl)-6-isopropyl-2-(1-((3-methyloxetan-3-yl)methyl)piperidin-4-yl)-4H-pyrrolo[3,2-d]thiazole] | 0.56 nM | 6840 nM | 2.92 nM
5 | Cc1c(-c2[nH]c3sc(C4CCN(CC5CCOCC5)CC4)nc3c2C(C)C)cn2ncnc2c1C [Example 48, 5-(7,8-dimethyl-[1,2,4]triazolo[1,5-a]pyridin-6-yl)-6-isopropyl-2-(1-((tetrahydro-2H-pyran-4-yl)methyl)piperidin-4-yl)-4H-pyrrolo[3,2-d]thiazole] | 4.32 nM | 19500 nM | 6.02 nM

Other lines, results leading:

Row | IC50 (human TLR8) | IC50 (human TLR9) | IC50 (human TLR7) | Compound
6 | 2.66 nM | 8430 nM | 1.19 nM | Cc1c(-c2[nH]c3sc(C4CCNCC4)nc3c2C(C)C)cn2ncnc2c1C [Example 41, 5-(7,8-dimethyl-[1,2,4]triazolo[1,5-a]pyridin-6-yl)-6-isopropyl-2-(piperidin-4-yl)-4H-pyrrolo[3,2-d]thiazole]
7 | 6.77 nM | 19000 nM | 2.99 nM | Cc1c(-c2[nH]c3sc(C4CCNCC4)nc3c2C(C)C)cn(C)c(=O)c1C [Example 42, 5-(6-isopropyl-2-(piperidin-4-yl)-4H-pyrrolo[3,2-d]thiazol-5-yl)-1,3,4-trimethylpyridin-2(1H)-one]
8 | 0.63 nM | 15100 nM | 1.68 nM | Cc1c(-c2[nH]c3sc(C4CCN(C(C)C)CC4)nc3c2C(C)C)cn2ncnc2c1C [Example 44, 5-(7,8-dimethyl-[1,2,4]triazolo[1,5-a]pyridin-6-yl)-6-isopropyl-2-(1-isopropylpiperidin-4-yl)-4H-pyrrolo[3,2-d]thiazole]
9 | 19.5 nM | 45400 nM | 1.84 nM | Cc1c(-c2[nH]c3sc(C4CCN(S(C)(=O)=O)CC4)nc3c2C(C)C)cn2ncnc2c1C [Example 45, 5-(7,8-dimethyl-[1,2,4]triazolo[1,5-a]pyridin-6-yl)-6-isopropyl-2-(1-(methylsulfonyl)piperidin-4-yl)-4H-pyrrolo[3,2-d]thiazole]
10 | 0.48 nM | 9220 nM | 0.97 nM | Cc1c(-c2[nH]c3sc(C4CCN(C)CC4)nc3c2C(C)C)cn2ncnc2c1C [Example 49, 5-(7,8-dimethyl-[1,2,4]triazolo[1,5-a]pyridin-6-yl)-6-isopropyl-2-(1-methylpiperidin-4-yl)-4H-pyrrolo[3,2-d] thiazole]
11 | 2.74 nM | 17300 nM | 1.27 nM | CCN1CCC(c2nc3c(C(C)C)c(-c4cn5ncnc5c(C)c4C)[nH]c3s2)CC1 [Example 50, 5-(7,8-dimethyl-[1,2,4]triazolo[1,5-a]pyridin-6-yl)-2-(1-ethylpiperidin-4-yl)-6-isopropyl-4H-pyrrolo[3,2-d]thiazole]
12 | 1.03 nM | 8800 nM | 1.59 nM | CCCN1CCC(c2nc3c(C(C)C)c(-c4cn5ncnc5c(C)c4C)[nH]c3s2)CC1 [Example 51, 5-(7,8-dimethyl-[1,2,4]triazolo[1,5-a]pyridin-6-yl)-6-isopropyl-2-(1-propylpiperidin-4-yl)-4H-pyrrolo[3,2-d]thiazole]
13 | 4.22 nM | 18000 nM | 2.9 nM | Cc1c(-c2[nH]c3sc(C4CCN(CC(C)C)CC4)nc3c2C(C)C)cn2ncnc2c1C [Example 52, 5-(7,8-dimethyl-[1,2,4]triazolo[1,5-a]pyridin-6-yl)-2-(1-isobutylpiperidin-4-yl)-6-isopropyl-4H-pyrrolo[3,2-d]thiazole]
